Measurements reported in patent US12692513B2, “Prostate neoantigens and their uses” (Janssen Biotech, Inc., priority 2020, dated 2026).

Tests used:
[1] = test system: CD8+ T cells in PBMCs from patients with metastatic castrate-resistant prostate cancer; assay: Patient PBMC restimulation assay (TNFα+IFNγ+ CD8+ T cells); type: cell-based, human; conditions: 9mer peptide; for Maximum frequency of TNFα+IFNγ+CD8+ T cells (Percent): greatest frequency among all tested PBMC donors; for Maximum fold change over negative control: TNFα+IFNγ+CD8+ T cells, highest across PBMC donors
Method: PBMCs from human patients with metastatic castrate-resistant prostate cancer were thawed using media (RPMI 1640 supplemented with Glutamax, 10% HI FBS, and IX Sodium Pyruvate). Cells were counted and plated in a 96 well round bottom microplate at a concentration of 250,000 viable cells per well. Lyophilized peptides were solubilized in 100% DMSO and diluted in media to 10 μg/mL. Neoantigen peptides were added in equal volume to PBMCs for a final concentration of 5 μg/mL. CEF Peptide Pool “Plus” (Cellular Technologies, Ltd.) was utilized as a positive control and DMSO at the same final concentration as the experimental peptides was utilized as a negative control. Human IL-15 (Peprotech) was added to all wells at final concentration of 10 ng/mL.
Plates were incubated at 37° C. (5% CO2) for a total of 13 days. Media was refreshed every 2 days with IL-15 (10 ng/mL final concentration) and IL-2 (R&D systems, 10 IU/mL final concentration). On day 12, PBMCs were re-stimulated with identical experimental peptides or controls, at same concentration as peptide stimulation on Day 1. After 1-hour incubation, protein Inhibitor Cocktail (eBioscience) was added to every well and plate was incubated overnight.
On day 13, cells were stained for intracellular flow cytometry analysis. The cells were washed with PBS and stained with Live/Dead Fixable Aqua Dead Cell stain (ThermoFisher). Following the live/dead stain, cells were blocked using Biotin-Free Fc Receptor Blocker (Accurate Chemical & Scientific Corp). Extracellular cellular flow panel (1 μL/antibody per well in 50 μL) consisted of CD3 PerCP-Cy5.5 (Biolegend), CD4 BV421 (Biolegend), and CD8 APC-Cy7 (Biolegend). After extracellular staining, cells were fixed using Foxp3/Transcription Factor Staining Buffer Set (eBioscience) and stained for intracellular proteins (1:50 dilution) using TNFα FITC (R&D Systems) and IFNγ BV785 (Biolegend). Cells were washed and resuspended in stain buffer and analyzed using a BD Celesta flow cytometer.
Flow cytometry cell staining analysis was completed using Flow Jo v10. Cells were gated on live, singlet, CD3+ cells. The CD8+ T cells were analyzed for TNFα/IFNγ expression and the frequency of double positive TNFα/IFNγ CD8+ T cells was recorded. Responses were assessed to be positive when the frequency of double positive TNFα/IFNγ CD8+ T cells due to stimulation with an experimental peptide was increased greater than or equal to 2-fold over the DMSO only negative control for that patient. Peptides were analyzed in 1 to 7 patient samples.
The 9 mer fragments shown in Table 13 were assessed for their ability to activate T cells using the Patient PBMC restimulation assay described in Example 1 using TNFα and IFNγ production by CD8^+ T cells as a readout. Self-antigens shown in Table 15 were also used in the assays. […] PBMCs from ten patients were evaluated.

HLA-A*03:01 = HLA-A*03:01 (Homo sapiens, UniProt P04439); assay: In vitro binding to class I MHC (UV peptide exchange, HLA class I ELISA); conditions: 100% = same binding as positive control peptide
Method: (§1) The 9 mer peptides identified by bioinformatics analysis were analyzed for their binding propensities to 6 common HLA class I alleles (HLA-A*01:01, A*02:01, A*03:01, A*24:02, B*07:02, B*08:01). The principle of the method is briefly described below and consists of two parts, one involving exchange of peptide with a positive control induced by Ultraviolet (UV) radiation, and the second is an enzyme immunoassay to detect stable HLA-peptide and empty HLA complexes. HLA-bound peptides are critical for the stability of the HLA complex. A conditional HLA class I complex was stabilized by an UV-labile peptide utilizing a different peptide (Pos) for each HLA (Pos: HLA-A*01:01: […](SEQ ID NO: 409), HLA-A*02:01: […] (SEQ ID NO: 410), HLA-A*03:01: […] (SEQ ID NO: 411), HLA-A*24:02: […] (SEQ ID NO: 412), HLA-B*07:02: […] (SEQ ID NO: 413), HLA-B*08:01: […] (SEQ ID NO: 414), which could be cleaved by UV irradiation when bound to the HLA molecule. Upon cleavage, the resulting peptide fragments dissociated from the HLA class I complex since their length was insufficient to bind stably to HLA. Under the conditions in which peptide cleavage was performed (neutral pH, on melting ice), the peptide-free HLA complex remained stable.
(§2) The exchange efficiency between the peptide of interest and Pos was analyzed using an HLA class I ELISA. The combined technologies allowed the identification of ligands for an HLA molecule of interest which are potentially immunogenic.
(§3) Exchange control peptide Pos was a high affinity binder to the relevant HLA class I allele while exchange control peptide Neg was a non-binder. The UV control represented UV-irradiation of conditional HLA class I complex in the absence of a rescue peptide.
(§4) The HLA class I ELISA is an enzyme immunoassay based on the detection of beta2-microglobulin (B2M) of (peptide-stabilized) HLA class I complexes. To this end streptavidin was bound onto polystyrene microtiter wells. After washing and blocking, HLA complex present in exchange reaction mixtures or ELISA controls was captured by the streptavidin on the microtiter plate via its biotinylated heavy chain. Non-bound material was removed by washing. Subsequently, horseradish peroxidase (HRP)-conjugated antibody to human B2M was added. The HRP-conjugated antibody binds only to an intact HLA complex present in the microtiter well because unsuccessful peptide exchange results in disintegration of the original UV-sensitive HLA complex upon UV illumination. In the latter case B2M was removed during the washing step. After removal of non-bound HRP conjugate by washing, a substrate solution was added to the wells. A colored product formed in proportion to the amount of intact HLA complex present in the samples. After the reaction was terminated by the addition of a stop solution, absorbance was measured in a microtiter plate reader. The absorbance was normalized to the absorbance of an exchange control peptide (represents 100%). Suboptimal HLA binding of peptides with a moderate to low affinity for HLA class I molecules can also be detected by this ELISA technique (Rodenko, B et al. (2006) Nature Protocols 1: 1120-32).
(§5) Peptides that had 10% or greater exchange efficiency in one of the 6 HLA alleles were considered for further immunogenicity testing and analysis.
(§6) Binding of select neoepitopes to HLA-A*01:01, HLA-A*02:01, HLA-A*03:01, HLA-A*24:02, HLA-B*07:02 and HLA-B*08:01 was evaluated using the assay described in Example 1. […] As a criterion for further evaluation, peptides with an exchange rate of at least 10% with the corresponding Pos peptide for at least one of the 6 HLA alleles that we considered for further evaluation. The exchange rates with the allele specific Pos peptides, of the 24 neoantigens so identified are summarized below in Table 17. Higher percentages correspond to stronger binding to the HLA allele.

HLA-A*01:01 = HLA-A*01:01 (Homo sapiens, UniProt P04439, A114D/A174V/A182V/D101N/D185E/E176A/E190D/L180R/Q94H/R68K/S129P/T187R/V100A/V91M/W191G); assay: as above; conditions: 100% = same binding as positive control peptide
Method: as §1, §2, §3, §4, §5, §6

HLA-B*07:02 = HLA-B*07:02 (Homo sapiens, UniProt P01889); assay: as above; conditions: 100% = same binding as positive control peptide
Method: as §1, §2, §3, §4, §5, §6

HLA-A*24:02 = HLA-A*24:02 (Homo sapiens, UniProt P04439, D101N/D140Y/D185E/E176V/E190D/F33S/G103R/G107R/I119L/I121M/I306V/K335N/L105A/L180Q/L300P/N151K/N90K/Q86E/Q94H/R106L/R138H/R89G/T104I/T345S/V100E/W191G/Y123F); assay: as above; conditions: 100% = same binding as positive control peptide
Method: as §1, §2, §3, §4, §5, §6

HLA-A*02:01 = HLA-A*02:01 (Homo sapiens, UniProt P04439, D140Y/D185E/D98H/E176V/E277Q/G131W/G231S/I119V/I121R/I166T/I218V/L300P/L318F/N151K/N90K/P208A/P217A/Q86G/Q94H/R138H/R169H/T345S); assay: as above; conditions: 100% = same binding as positive control peptide
Method: as §1, §2, §3, §4, §5, §6

HLA-B*08:01 = HLA-B*08:01 (Homo sapiens, UniProt P01889, A93T/A95T/D138N/E176V/E187T/K202T/Q94N/R180D/S35A/V36M/Y33D/Y91F); assay: as above; conditions: 100% = same binding as positive control peptide
Method: as §1, §2, §3, §4, §5, §6

GVPGDSTRRAVRRMNTF (listed as Homo sapiens) [Neoantigen P16]
Maximum frequency of TNFα+IFNγ+CD8+ T cells (Percent) [1]: 4.620%

NSKMALNSLNSIDDAQLTRIAPPRSHCCFWEVNAP (listed as Homo sapiens) [Neoantigen P35]
Maximum frequency of TNFα+IFNγ+CD8+ T cells (Percent) [1]: 0.064%

P17 (GVPGDSTRRAVRRMNTF; listed as Homo sapiens) [Neoantigen P17]
Maximum frequency of TNFα+IFNγ+CD8+ T cells (Percent) [1]: 0.130%

P27 (LHPQRETFTPRWSGANYWKLAFPVGAEGTFPAAATQRGVVRPA; listed as Homo sapiens) [Neoantigen P27]
Maximum frequency of TNFα+IFNγ+CD8+ T cells (Percent) [1]: 0.430%

P37 (MAGGVLRRLLCREPDRDGDKGASREETVVPLHIGDPVVLPGIGQCYSALF; listed as Homo sapiens) [Neoantigen P37]
Maximum frequency of TNFα+IFNγ+CD8+ T cells (Percent) [1]: 1.160%

P46 (DDRNTFDIVWWCPMSRLRLALTVPPSTTTTCVTVPAWAA; listed as Homo sapiens) [Neoantigen P46]
Maximum frequency of TNFα+IFNγ+CD8+ T cells (Percent) [1]: 0.140%

P48 (VQPIARELYQFTFDLLI; listed as Homo sapiens) [Neoantigen P48]
Maximum frequency of TNFα+IFNγ+CD8+ T cells (Percent) [1]: 0.220%

P50 (QMAVIQYSCMGLMVFAM; listed as Homo sapiens) [Neoantigen P50]
Maximum frequency of TNFα+IFNγ+CD8+ T cells (Percent) [1]: 0.190%

P56 (PKSEVRAKCKFSILNAK; listed as Homo sapiens) [Neoantigen P56]
Maximum frequency of TNFα+IFNγ+CD8+ T cells (Percent) [1]: 1.620%

P58 (MMAEIISVHVPKILSGK; listed as Homo sapiens) [Neoantigen P58]
Maximum frequency of TNFα+IFNγ+CD8+ T cells (Percent) [1]: 5.370%

P59 (LHPDSGNMVENGCYLRR; listed as Homo sapiens) [Neoantigen P59]
Maximum frequency of TNFα+IFNγ+CD8+ T cells (Percent) [1]: 3.010%

P60 (CYLRRQKRLKCEKQPGA; listed as Homo sapiens) [Neoantigen P60]
Maximum frequency of TNFα+IFNγ+CD8+ T cells (Percent) [1]: 0.340%

P61 (MFENGCYLGRQKRFKCE; listed as Homo sapiens) [Neoantigen P61]
Maximum frequency of TNFα+IFNγ+CD8+ T cells (Percent) [1]: 0.084%

P73 (DSSGNLLERNSFEVRV; listed as Homo sapiens) [Neoantigen P73]
Maximum frequency of TNFα+IFNγ+CD8+ T cells (Percent) [1]: 0.110%

P97 (GYLRMQGLMAQRLLLR; listed as Homo sapiens) [Neoantigen P97]
Maximum frequency of TNFα+IFNγ+CD8+ T cells (Percent) [1]: 0.160%

P98: peptide used for stimulation of PBMC samples (FIG. 5D); sequence in a table not shown (DDRNTFDIVWWCPMSRLRLALTVPPSTTTTCVTVPAWAA; listed as Homo sapiens) [Neoantigen P98]
Exchange rate with allele specific Pos peptide, HLA-A*03:01 (HLA-A*03:01): 51.1% | Exchange rate with allele specific Pos peptide, HLA-A*01:01 (HLA-A*01:01): 2.5% | Exchange rate with allele specific Pos peptide, HLA-B*07:02 (HLA-B*07:02): 6.7% | Exchange rate with allele specific Pos peptide, HLA-A*24:02 (HLA-A*24:02): −0.1% | Exchange rate with allele specific Pos peptide, HLA-A*02:01 (HLA-A*02:01): 7.9% | Exchange rate with allele specific Pos peptide, HLA-B*08:01 (HLA-B*08:01): 2.4% | Maximum fold change over negative control [1]: 14.93 | Maximum frequency of TNFα+IFNγ+CD8+ T cells (Percent) [1]: 1.000%

SLYHREKQLIAMDSAI (listed as Homo sapiens) [Neoantigen P22]
Exchange rate with allele specific Pos peptide, HLA-B*07:02 (HLA-B*07:02): 8.3% | Maximum fold change over negative control [1]: 5.00 | Maximum frequency of TNFα+IFNγ+CD8+ T cells (Percent) [1]: 0.120%

YEAGMTLGEKFRVGNCKHLKMTRP (listed as Homo sapiens) [Neoantigen P82]
Maximum frequency of TNFα+IFNγ+CD8+ T cells (Percent) [1]: 0.970%

YEAGMTLGGKILFFLFLLLPLSPFSLIF (listed as Homo sapiens) [Neoantigen P87]
Maximum frequency of TNFα+IFNγ+CD8+ T cells (Percent) [1]: 0.120%

B1: P19 (peptide, listed as Homo sapiens)
chain: WTPIPVLTRWPLPHPPPWRRATSCRMARSSPSATSGSSVRRRCSSLPSWVWNLAASTRPRSTPS
Maximum frequency of TNFα+IFNγ+CD8+ T cells (Percent) [1]: 0.480%

B2: P76 (peptide, listed as Homo sapiens)
chain: VFFKRAAEGFFRMNKLKESSDTNPKPYCMAAPMGLTENNRNRKKSYRETNLKAVSWPLNHT
Maximum fold change over negative control [1]: 2.30 | Maximum frequency of TNFα+IFNγ+CD8+ T cells (Percent) [1]: 0.170%

B3: P77 (peptide, listed as Homo sapiens)
chain: VFFKRAAEGFFRMNKLKESSDTNPKPYCMAAPMGLTENNRNRKKSYRETNLKAVSWPLNHT
Maximum fold change over negative control [1]: 3.24 | Maximum frequency of TNFα+IFNγ+CD8+ T cells (Percent) [1]: 0.160%
